{"source": "paper PMC11206987", "about": "“Investigation of the Efficacy of Benzylidene-3-methyl-2-thioxothiazolidin-4-one Analogs with Antioxidant Activities on the Inhibition of Mushroom and Mammal Tyrosinases” (Molecules, 2024)", "key": {"[1]": {"molecular_target": "mushroom tyrosinase (Agaricus bisporus, UniProt C7FF04)", "sequence (C7FF04 1-392)": "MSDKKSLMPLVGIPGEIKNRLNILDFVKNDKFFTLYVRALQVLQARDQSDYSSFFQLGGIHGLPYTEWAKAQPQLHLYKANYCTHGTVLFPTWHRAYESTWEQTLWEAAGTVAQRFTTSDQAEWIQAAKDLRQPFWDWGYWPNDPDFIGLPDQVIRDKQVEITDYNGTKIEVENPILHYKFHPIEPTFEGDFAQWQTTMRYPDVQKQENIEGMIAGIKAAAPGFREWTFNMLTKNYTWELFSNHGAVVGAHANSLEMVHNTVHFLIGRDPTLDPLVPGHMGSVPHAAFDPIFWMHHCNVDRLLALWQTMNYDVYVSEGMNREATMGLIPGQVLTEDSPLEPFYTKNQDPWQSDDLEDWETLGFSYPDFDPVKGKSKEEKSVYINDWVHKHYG", "experiment": "Kinetic study of mushroom tyrosinase inhibition (Lineweaver–Burk and Dixon plots)", "assay_type": "biochemical", "procedure": "The initial rate of dopachrome generation was examined at various BMTTZD analog concentrations (0, 1.5, 3, and 6 µM for analog 1; 0, 2, 4, and 8 µM for analogs 2 and 5; and 0, 0.05, 0.1, and 0.2 µM for 3) with 0.5, 1, 2, 4, 8, or 16 mM L-dopa as substrates using mushroom tyrosinase. Plotting the reciprocal of the dopachrome formation rate against the inverse of the L-dopa concentration produced Lineweaver–Burk plots (Figure 2). Each Lineweaver–Burk plot created four straight lines with different slopes. For analogs 1 and 3, the four straight lines met at a point on the y-axis, whereas for analogs 2 and 5, the four straight lines converged at a point in the second quadrant.\nThe Dixon plots produced lines that met in the second quadrant. The x-coordinate of the convergence position represents the inhibition constant (Ki) of the ligand.\nLineweaver–Burk (L-B) plots were acquired for the kinetic analysis of analogs against mushroom tyrosinase as previously described. In brief, 10 µL of a solution of DMSO and BMTTZD analogs 1–3 or 5 (final concentrations: 0, 1.5, 3, and 6 µM for analog 1; 0, 2, 4, and 8 µM for analogs 2 and 5; and 0, 0.05, 0.1, and 0.2 µM for analog 3) in each well of a 96-well plate was mixed with 20 µL of aqueous mushroom tyrosinase solution (200 units/mL) and 170 µL of an aqueous substrate mixture (various concentrations of L-dopa (final concentrations: 16, 8, 4, 2, 1 and 0.5 mM) and 17.2 mM sodium phosphate buffer (pH 6.5)). During incubation (15 min at 37 °C), the increase in the well absorbance (ΔOD475/min) was calculated at 1 min intervals utilizing a VersaMax® reader."}, "[2]": {"experiment": "ABTS+ radical scavenging activity assay", "conditions": "100 µM", "procedure": "Second, the ability of BMTTZD analogs to scavenge ABTS^+ radicals was examined. ABTS^+ radicals were obtained via the oxidation of ABTS using potassium persulfate. All samples (Trolox (positive control) and 1–8) were tested at 100 µM.\nThe ability of the BMTTZD analogs to scavenge ABTS^+ radicals was assessed as previously described, with minor modifications. To a 50 mL tube were added 20 mL aqueous K2S2O8 solution (2.45 mM) and 20 mL aqueous ABTS solution (7 mM). The combined mixture was placed at 22 °C in a place without light for 17 h to generate the ABTS^+ radicals. For adequate absorbance control (0.70 ± 0.02 at 734 nm), methanol was added to the combined mixture. Test compounds (Trolox and analogs 1–8; 10 µL in 10% DMSO/90% EtOH [v/v] solution) were mixed with 90 µL ABTS^+ radical solution. After storage in a place without light for 2 min, the well absorbance at 734 nm was acquired for 10 min every 1 min by using a microplate reader (VersaMax®). All test compounds were tested at 100 µM. The activity of the analogs was compared to that of Trolox."}}}
{"smiles": "CN1C(=O)/C(=C/c2ccc(O)cc2O)SC1=S", "note": "[Analog 3, (Z)-5-(2,4-Dihydroxybenzylidene)-3-methyl-2-thioxothiazolidin-4-one]", "values": [{"measurement": "type of tyrosinase inhibition (Lineweaver–Burk plots)", "setting": "[1]; substrate L-dopa 0.5–16 mM", "value": "competitive inhibitors"}, {"measurement": "Ki", "setting": "[1]; substrate L-dopa, read-out: inhibition constant (Ki) from Dixon plots", "value": 47, "unit": "nM"}, {"measurement": "ABTS^+ radical scavenging activity", "setting": "[2]", "value": 95, "unit": "%"}]}
